Laboratory results: patent EP4741379A1, “CLASS OF PROGRAMMED CELL DEATH INHIBITORS, PREPARATION METHOD THEREFOR AND USE THEREOF” (SHANGHAI INSTITUTE OF ORGANIC CHEMISTRY, CHINESE ACADEMY OF …, priority 2023, dated 2025)
Read-outs that look alike come from different tables or passages of the source.

Experiments:
[1] = system: FADD-deficient Jurkat cells; test: TNF-induced programmed necrosis of FADD-deficient Jurkat cells (Cell Titer-Glo viability); type: cell-based, human; details: for EC50: Homo sapiens, Jurkat; for programmed necroptosis inhibitory activity compared to SAR443122: TNFα alone or TNFα + SM164, human derived FADD-deficient Jurkat cells
Protocol: (§1) The biological test protocol is adopted to test effects of the compound on TNF-induced programmed necrosis of FADD (Fas-associated death domain)-deficient Jurkat cells and L929 cells.
(§2) Two different stimulation methods were used: treating with tumor necrosis factor (TNFα) alone, or treating with TNFα in combination of mitochondrial-derived cysteine-aspartate activator (SMAC) SM164. Cell viability was determined by measuring chemiluminescence values, thereby assessing the bioactivity of the compounds in inhibiting programmed cell necrosis.
(§3) Method: FADD-deficient Jurkat cells: FADD-deficient Jurkat cells (human peripheral blood leukemia T cell line) were cultured in vitro. After reaching logarithmic growth phase, cells were collected and centrifuged at 1000 rpm for 5 minutes. A supernatant was discarded. A cell concentration was adjusted to 2.5×10^5/mL, and cells were seeded into a 384-well plate at 40 µL per well. In the corresponding wells, 5 µL of SM164 (50 nM) and compounds diluted with cell culture medium were added. After pre-treatment at 37°C for 1 hour, 5 µL of TNFα (50 ng/mL) diluted with cell culture medium was added to each well as a stimulation group, while 5 µL of culture medium was added as a control group. After the plate was incubated in a cell culture incubator (37°C, 5% CO2) for 14 hours, 15 µL of Cell Titer-Glo solution was added to each well. Then, the plate was incubated at room temperature for 30 minutes. Luminescence was measured to assess intracellular ATP levels. Cell viability was set at 100% for unstimulated DMSO control wells. […] The plate was placed in a cell culture incubator (37°C, 5% CO2) and cultured for 12 hours. In the corresponding wells, 5 µL of SM164 (500 nM) and compounds diluted with cell culture medium were added. After pre-treatment at 37°C for 1 hour, 5 µL of TNFα (500 ng/mL) diluted with cell culture medium was added to the wells as a stimulation group, while 5 µL of culture medium was added as a control group. After the plate was incubated in the cell incubator (37°C, 5% CO2) for 14 hours, 15 µL of Cell Titer-Glo solution was added to each well. Then, the plate was incubated at room temperature for 30 minutes, and luminescence was measured to assess intracellular ATP levels. Cell viability was set at 100% for unstimulated DMSO control wells. EC50 values of the compounds were calculated using Prism GraphPad statistical software.

L929 cells = test: TNF-induced programmed necrosis of L929 cells (Cell Titer-Glo viability); type: cell-based, mouse; details: Mus musculus
Protocol: as §1, §2, §3

[2] = stimulation with TNFα + SM164, read-out: EC50 (nM) FADD^-/- Jurkat cells (human-derived) TNFα+ SM164
[3] = stimulation with TNFα alone, read-out: EC50 (nM) FADD^-/- Jurkat cells (human-derived) TNFα
[4] = L929, stimulation with TNFα + SM164, read-out: EC50 (nM) L929 cells (mouse-derived) TNFα+ SM164
[5] = L929, stimulation with TNFα alone, read-out: EC50 (nM) L929 cells (mouse-derived) TNFα
[6] = read-out: EC50 (nM) FADD^-/- Jurkat cells (human-derived) TNFα
[7] = L929, read-out: EC50 (nM) L929 cells (mouse-derived) TNFα

SMILES | EC50 [1, 2] | EC50 [1, 3] | EC50 (L929 cells; [4]) | EC50 (L929 cells; [5]) | other results
C[C@H](NC(=O)c1nnn(C)c1Cc1ccccc1)c1ccc(C#Cc2cccc(N(C)C)n2)cc1 [IRCBC-099] | 3.46 nM | 0.195 nM | 0.734 nM | 0.399 nM | –
C[C@H](NC(=O)c1nnn(C)c1Cc1ccccc1)c1ccc(C#Cc2ccc(C#N)cn2)cc1 [IRCBC-051] | 0.845 nM | 0.006 nM | 4.53 nM | 1.62 nM | –
C[C@H](NC(=O)c1nnn(C)c1Cc1ccccc1)c1ccc(C#Cc2cnccn2)cc1 [IRCBC-048] | – | – | – | – | EC50 [1, 6]: 0.018 nM; EC50 (L929 cells; [7]): 2.93 nM
C[C@H](NC(=O)c1nnn(C)c1Cc1ccccc1)c1ccc(C#Cc2ncc(N)cn2)cc1 [IRCBC-161] | – | – | 0.002 nM | 0.002 nM | –
C[C@H](NC(=O)c1nnn(C)c1Cc1ccccc1)c1ccc(C#Cc2cccnc2)cc1 [QY-18-25] | 0.02 nM | < 0.01 nM | 1.2 nM | 0.3 nM | –
C[C@H](NC(=O)c1nnn(C)c1Cc1ccccc1)c1ccc(C#Cc2ccc(N3CCC3)cn2)cc1 [IRCBC-103] | 0.001 nM | – | 0.104 nM | 0.044 nM | –
CC(C)Nc1cnc(C#Cc2ccc([C@H](C)NC(=O)c3nnn(C)c3Cc3ccccc3)cc2)nc1 [IRCBC-269] | 0.00168 nM | – | – | – | –
C[C@H](NC(=O)c1nnn(C)c1Cc1ccccc1)c1ccc(C#Cc2ncc(N3CC(N(C)C)C3)cn2)cc1 [IRCBC-259] | – | – | 0.001 nM | – | –
C[C@H](NC(=O)c1nnn(C)c1Cc1ccccc1)c1ccc(C#Cc2ccnc(N(C)C)n2)cc1 [IRCBC-100] | 1.79 nM | 0.084 nM | 1.21 nM | 0.561 nM | –
C[C@H](NC(=O)c1nnn(C)c1Cc1ccccc1)c1ccc(N2CCN(C)C(=O)C2)cc1 [IRCBC-043] | 5.11 nM | 0.683 nM | – | – | EC50 (L929 cells; L929, stimulation with TNFα + SM164, µM, read-out: EC50 L929 cells (mouse-derived) TNFα+ SM164): > 1000 nM; EC50 (L929 cells; L929, stimulation with TNFα alone, µM, read-out: EC50 L929 cells (mouse-derived) TNFα): > 1000 nM
C[C@H](NC(=O)c1nnn(C)c1Cc1ccccc1)c1ccc(C#Cc2ccc(Cl)cn2)cc1 [IRCBC-050] | – | – | – | – | EC50 [1, 6]: 0.001 nM; EC50 (L929 cells; [7]): 0.105 nM
C[C@H](NC(=O)c1nnn(C)c1Cc1ccccc1)c1ccc(C#Cc2ncc(N3CCOCC3)cc2C#N)cc1 [IRCBC-154] | – | – | 0.002 nM | – | –
C[C@H](NC(=O)c1nnn(C)c1Cc1ccccc1)c1ccc(C#Cc2ccncc2)cc1 [QY-18-27] | 0.01 nM | < 0.01 nM | 0.06 nM | 0.04 nM | programmed necroptosis inhibitory activity compared to SAR443122 [1]: stronger
C[C@H](NC(=O)c1nnn(C)c1Cc1ccccc1)c1ccc(C#Cc2ncc[nH]2)cc1 [IRCBC-006] | – | – | – | – | EC50 [1, 6]: 2.03 nM; EC50 (L929 cells; [7]): 81.9 nM
C[C@H](NC(=O)c1nnn(C)c1Cc1ccccc1)c1ccc(C#Cc2cnc(N(C)C)cn2)cc1 [IRCBC-098] | 0.004 nM | – | 0.062 nM | 0.011 nM | –
CN1C(=O)[C@@H](NC(=O)c2n[nH]c(Cc3ccccc3)n2)COc2ccccc21 [GSK2982772, reference compound] | 4 nM | 0.7 nM | > 1000 nM | > 1000 nM | –
C[C@H](NC(=O)c1nnn(C)c1Cc1ccccc1)c1ccc(C#Cc2cnc(N(C)C)nc2)cc1 [IRCBC-119] | 5.79 nM | 0.164 nM | 70.9 nM | 20.9 nM | –
C[C@H](NC(=O)c1nnn(C)c1Cc1ccccc1)c1ccc(C#Cc2cnc[nH]2)cc1 [IRCBC-005] | 1.12 nM | 0.019 nM | 3.42 nM | 2.09 nM | –
CC(C)N1CCN(c2ccc(C#Cc3ccc([C@H](C)NC(=O)c4nnn(C)c4Cc4ccccc4)cc3)nc2)CC1 [IRCBC-159] | 0.002 nM | – | 0.006 nM | 0.003 nM | –
C[C@H](NC(=O)c1nnn(C)c1Cc1ccc(C#N)cc1)c1ccc(C#Cc2ccccn2)cc1 [IRCBC-071] | 0.641 nM | 0.006 nM | 2.99 nM | 0.914 nM | –
C[C@H](NC(=O)c1nnn(C)c1Cc1ccccc1)c1ccc(C#Cc2ncccc2C#N)cc1 [IRCBC-121] | 0.01 nM | – | 0.069 nM | 0.012 nM | –

SMILES | EC50 [1, 2] | EC50 [1, 3] | EC50 (L929 cells; [4]) | EC50 (L929 cells; [5]) | other results
CNc1cnc(C#Cc2ccc([C@H](C)NC(=O)c3nnn(C)c3Cc3ccccc3)cc2)cn1 [IRCBC-145] | 0.007 nM | – | 0.127 nM | 0.063 nM | –
C[C@H](NC(=O)c1nnn(C)c1Cc1ccccc1)c1ccc(C#Cc2ccn(C)n2)cc1 [IRCBC-004] | – | – | – | – | EC50 [1, 6]: 0.019 nM; EC50 (L929 cells; [7]): 0.558 nM
C[C@H](NC(=O)c1nnn(C)c1Cc1ccccc1)c1ccc(C#Cc2ccc(N3CCOCC3)cn2)cc1 [IRCBC-105] | – | – | 0.004 nM | 0.008 nM | –
[2H]C([2H])([2H])Nc1ccc(C#Cc2ccc([C@H](C)NC(=O)c3nnn(C)c3Cc3ccccc3)cc2)nc1 [IRCBC-150] | – | – | 0.001 nM | 0.001 nM | –
C[C@H](NC(=O)c1nnn(C)c1Cc1ccccc1)c1ccc(C#Cc2ccncc2F)cc1 [IRCBC-054] | – | – | – | – | EC50 [1, 6]: 0.001 nM; EC50 (L929 cells; [7]): 0.103 nM
C[C@H](NC(=O)c1nnn(C)c1Cc1ccccc1)c1ccc(C#Cc2cnoc2)cc1 [QY-18-77] | 32 nM | 0.3 nM | – | 733 nM | –
C[C@H](NC(=O)c1nnn(C)c1Cc1ccccc1)c1ccc(C#Cc2cnn(C3CC3)c2)cc1 [IRCBC-041] | – | – | – | – | EC50 [1, 6]: 0.004 nM; EC50 (L929 cells; [7]): 0.771 nM
C[C@H](NC(=O)c1nnn(C)c1Cc1ccccc1)c1ccc(C#Cc2ncc3nc[nH]c3n2)cc1 [IRCBC-129] | – | – | 0.196 nM | 0.06 nM | –
C[C@H](NC(=O)c1nnn(C)c1Cc1ccccc1)c1ccc(C#CC2CC2)cc1 [QY-18-47] | 61 nM | 0.7 nM | 73 nM | 1 nM | –
COc1ccc(C#Cc2ccc([C@H](C)NC(=O)c3nnn(C)c3Cc3ccccc3)cc2)nc1 [IRCBC-052] | – | – | – | – | EC50 [1, 6]: 0.001 nM; EC50 (L929 cells; [7]): 0.068 nM
C[C@H](NC(=O)c1nnn(C)c1Cc1cccc(F)c1)c1ccc(C#Cc2ccccn2)cc1 [QY-20-54] | < 0.01 nM | < 0.01 nM | 0.3 nM | 0.05 nM | programmed necroptosis inhibitory activity compared to SAR443122 [1]: stronger
C[C@H](NC(=O)c1cnn(C)c1Cc1cc(F)cc(F)c1)c1ccc(C#Cc2ccccn2)cc1 [IRCBC-033] | 1.57 nM | 0.066 nM | 4.11 nM | 0.771 nM | –
C[C@H](NC(=O)c1nnn(C)c1Cc1ccccc1)c1ccc(C#Cc2c(F)cncc2F)cc1 [IRCBC-091] | 0.145 nM | 0.004 nM | 1.29 nM | 0.455 nM | –
C[C@H](NC(=O)c1nnn(C)c1Cc1ccccc1)c1ccc(C#Cc2cnn(C)c2)cc1 [QY-18-43] | 0.06 nM | 0.02 nM | 0.08 nM | 0.05 nM | –
C[C@H](NC(=O)c1nnn(C)c1Cc1ccccc1)c1ccc(C#Cc2ncc(N(C)C)cn2)cc1 [IRCBC-097] | – | – | 0.003 nM | 0.001 nM | –
CNc1ccc(C#Cc2ccc([C@H](C)NC(=O)c3nnn(C)c3Cc3ccccc3)cc2)nc1 [IRCBC-102] | – | – | 0.018 nM | 0.01 nM | –
[2H]C([2H])([2H])Nc1cnc(C#Cc2ccc([C@H](C)NC(=O)c3nnn(C)c3Cc3ccccc3)cc2)nc1 [IRCBC-256] | – | – | 0.00121 nM | – | –
CNc1cnc(C#Cc2ccc([C@H](C)NC(=O)c3nnn(C)c3Cc3ccccc3)cc2)nc1 [IRCBC-160] | – | – | 0.00234 nM | – | –
CC(C)Nc1ccc(C#Cc2ccc([C@H](C)NC(=O)c3nnn(C)c3Cc3ccccc3)cc2)nc1 [IRCBC-146] | – | – | 0.0014 nM | – | –
[2H]C([2H])([2H])Nc1cnc(C#Cc2ccc([C@H](C)NC(=O)c3nnn(C)c3Cc3ccccc3)cc2)c(C#N)c1 [IRCBC-257] | – | – | 0.00117 nM | – | –
